In publication PMC6264390, “Design, Synthesis and Structure-activity Studies of Rhodanine Derivatives as HIV-1 Integrase Inhibitors” (Molecules, 2010):
Like-named read-outs stand apart in the source and are kept apart here.

Assays:
HCT 116 p53^−/^− = experiment: MTT cytotoxicity assay, HCT 116 p53−/−; format: cell-based; details: Homo sapiens, 72 h
Source text: (§1) Human melanoma cell line MDA-MB 435, pancreatic cancer cell line Panc-1, and colon cancer cell line HT 29 were purchased from the American Type Cell Culture (Manassas, VA, USA). HCT 116 p53^+/+ and HCT 116 p53^−/^− were kindly provided by Dr. Bert Vogelstein, Johns Hopkins Medical Institutions (Baltimore, MD, USA). HCT 116 p53^+/+, HCT116 p53^−/^−, and HT 29 cells were maintained as monolayer cultures in RPMI 1640 supplemented with 10% fetal bovine serum (FBS; Gemini-Bioproducts, Woodland, CA, USA) and 2 mmol/L L-glutamine at 37 °C in a humidified atmosphere of 5% CO2. Similarly, MDA-MB 435 and Panc-1 cells were maintained in Dulbecco’s modified Eagle’s medium (DMEM) supplemented with 10% fetal bovine serum as described above. […]
(§2) Cytotoxicity was assessed by 3-(4,5-dimethylthiazol-2-yl)-2,5-diphenyltetrazolium bromide (MTT) assay as previously described. […]
(§3) After 72 h exposure to the test compounds, MTT solution (5 mg/mL; 20 μL) was added to each well and cells were incubated for 4 h at 37 °C. […] The absorbance intensity was measured at 570 nm against appropriate blank controls using a microplate reader (Molecular Devices, Sunnyvale, CA, USA). […]

HCT 116 p53^+/+ = experiment: MTT cytotoxicity assay, HCT 116 p53+/+; format: cell-based; details: Homo sapiens, 72 h
Source text: as §1, §2, §3

HIV-1 IN = biological target: T1, HIV-1 IN (Human immunodeficiency virus type 1 group M subtype B, UniProt P12497); experiment: In vitro IN inhibition assay (3’-processing and strand transfer); format: biochemical; details: Mn2+ cofactor (7.5 mM MnCl2)
T1 construct: pre-incubated with purified recombinant IN (at a final concentration of 200 nM); made in house
Procedure, shortened: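 Recombinant HIV-1 IN (200 nM) preincubated with compound 30 min at 30 °C in MnCl2-containing buffer (MgCl2 plus PEG for Mg2+ format), then 1 h with 20 nM 5'-32P-labeled 21-mer duplex. 3'-processing and strand-transfer products resolved on denaturing gels, phosphorimager-quantified; IC50 from log-concentration versus % inhibition.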

[1] = tested on: MDA-MB 435 melanoma cell line; experiment: MTT cytotoxicity assay, MDA-MB 435; format: cell-based; details: Homo sapiens, 72 h, read-out: GI50, MDA-MD435
Source text: as §1, §2, §3

[2] = tested on: Panc-1 pancreatic cancer cell line; experiment: MTT cytotoxicity assay, Panc-1; format: cell-based; details: Homo sapiens, 72 h
Source text: as §1, §2, §3

[3] = read-out: Inhibition of IN catalytic activity IC50, 3’-Processing
[4] = read-out: Inhibition of IN catalytic activity IC50, Strand Transfer

Compound: O=C(Nc1ccc(Cl)cc1)C(=S)NN1C(=O)C(=Cc2ccc([N+](=O)[O-])o2)SC1=S [Compound 13, N-(4-chlorophenyl)-2-{5-[(5-nitro-2-furyl)methylene]-4-oxo-2-thioxo-1,3-thiazolidin-3-yl}amino-2-thioxoacetamide]
- GI50 (HCT 116 p53^−/^−): 6.5 ± 1.2 µM
- GI50 (HCT 116 p53^+/+): > 10 µM
- IC50 (HIV-1 IN; [3]): 68 ± 46 µM
- IC50 (HIV-1 IN; [4]): 41 ± 27 µM
- GI50 [1]: 13.5 ± 5.2 µM
- melting point: 159 to 160 °C
- GI50 [2]: 8.6 ± 1.6 µM

Compound: COc1ccc(NC(=O)C(=S)NN2C(=O)C(=Cc3ccc([N+](=O)[O-])o3)SC2=S)cc1 [Compound 17, N-(4-methoxyphenyl)-2-{5-[(5-nitro-2-furyl)methylene]-4-oxo-2-thioxo-1,3-thiazolidin-3-yl}amino-2-thioxoacetamide]
- GI50 (HCT 116 p53^−/^−): 6.1 ± 2.2 µM
- GI50 (HCT 116 p53^+/+): 5.1 ± 0.8 µM
- IC50 (HIV-1 IN; [3]): 77 ± 10 µM
- IC50 (HIV-1 IN; [4]): 60 µM
- GI50 [1]: 9 ± 1.1 µM
- melting point: 187 to 188 °C
- GI50 [2]: 8.2 ± 1.2 µM
